The record followed here is patent US8329425B2, “Method and system for detection of chloramphenicol” (priority 2011, dated 2012).

In assay [1] the target is T1, CAT I V28W mutant (Escherichia coli, UniProt P62577, C126A/C196A/C212A/C31A/C91A/V28W). The conditions noted are these: chloramphenicol 10 μM; CAT I V28W and fluorescein-linked chloramphenicol fixed at 0.15 μM; excitation 494 nm.
Description: Fluorescence measurements were performed on a Perkin Elmer LS 50B spectrofluorometer with the excitation wavelength set at 494 nm and the excitation and emission slit width set at 5 nm.
For assay [2], the target named is T1, CAT I V28W mutant. The assay is described as follows: Fluorescence response of fluorescein-linked chloramphenicol to CAT I V28W mutant. As to conditions: 0.15 μM fluorescein-linked chloramphenicol, 1.5 μM CAT I V28W (FIG. 6); excitation 494 nm, slit width 5 nm. It is filed as binding, E. coli. The arrangement: His6 (N); made in house; host or cells: E. coli BL21 (DE3). From the text: The excitation wavelength is 494 nm and the slit width is 5 nm.

Turning to `O=C(N[C@H](CO)[C@H](O)c1ccc([N+](=O)[O-])cc1)C(Cl)Cl` [chloramphenicol], the increase in fluorescence in assay [1] is recorded as about 10%.
With `O=C(CCCCCNC(=S)Nc1ccc(-c2c3ccc(=O)cc-3oc3cc(O)ccc23)c(C(=O)O)c1)N[C@H](CO)[C@H](O)c1ccc([N+](=O)[O-])cc1` [fluorescein-linked chloramphenicol, 5-(3-(6-(((1R,2R)-1,3-dihydroxy-1-(4-nitrophenyl)propan-2-yl)amino)-6-oxohexyl)thioureido)-2-(6-hydroxy-3-oxo-3H-xanthen-9-yl)benzoic acid], the “fluorescence of fluorescein-linked chloramphenicol in the presence of CAT I V28W mutant” value in assay [2] is reported as “significantly reduced”.
